Here are results for 1 substance from patent US20240000707A1, “INHALABLE DRY POWDER FORMULATIONS COMPRISING ANGIOGENESIS INHIBITORS” (Lonza Bend Inc., priority 2020, published 2024).

The subject of this experiment is NSCLC cell line Calu-3. As to the kind of experiment: Orthotopic nude rat model for lung cancer, inhaled vs IP bevacizumab, primary and maintenance treatment. Format: in vivo. The conditions noted are these: week 8; INH 1.5 mg/kg deposited vs IP 15 mg/kg; cisplatin IP 3 mg/kg. On the procedure: NSCLC cell line Calu-3 was instilled into the lungs of X-irradiated rats by an intratracheal route, targeting […] cells per installation. For the first four weeks of the study, no treatment was administered, allowing growth of the tumor cells. Inhaled bevacizumab SDD was evaluated as a primary treatment as well as a maintenance therapy.
Cisplatin was administered by IP at 3 mg/kg. Powder was aerosolized using a rotating brush generator and delivered to the rats passively through nasal inhalation. […] Groups 1-4 were evaluated for primary efficacy after 8 weeks with lung weight as the end point. Groups 5-7 were evaluated for maintenance efficacy after 12 weeks with lung weight and survival as the end point.

For the substance Bevacizumab [IP bevacizumab], the “tumor burden, co-administered with cisplatin, inhaled vs IP bevacizumab” value is “indistinguishable, and significantly lower than group 1 and 3”.
